Test results from patent US12172983B2, “EGFR inhibitors” (Blueprint Medicines Corporation, priority 2019, dated 2024).
Like-named read-outs stand apart in the source and are kept apart here.

Tests used:
EGFR (L858R T790M C797S) = target: T1, EGFR (L858R T790M C797S) (Homo sapiens, UniProt P00533, C797S/L858R/T790M); assay: Biochemical EGFR inhibition assay (Caliper mobility shift), EGFR LRTMCS mutant; conditions: inhibitory activity against EGFR LRTMCS mutant; apparent IC50; read-out: Ext Enz LRTMCS
T1 construct: purchased SignalChem E10-122VG
Experimental: Reactions proceeded until between 10% to 20% total peptides were phosphorylated at room temperature (25° C.) and were terminated with 35 mM 2,2′,2″,2′″-(ethane-1,2-diyldinitrilo)tetraacetic acid (EDTA). Product was detected using the Caliper mobility shift detection method where the phosphorylated peptide (product) and substrate were electrophoretically separated and measured. Percent activity was plotted against log concentration of compound and points to generate an apparent IC50.

[1] = system: phosphorylation of EGFR (Tyr1068) in NCI-H1975 cell line that harbors the EGFR L858R T790M mutations; assay: NCI-H1975 pEGFR AlphaLISA assay; assay type: cell-based; conditions: 4-5 hours incubation, read-out: Ext pEGFR H1975
Experimental: Inhibitory effects of the compounds of the disclosure were evaluated in cellular assays that measure level of intracellular phosphorylation of EGFR in NCI-H1975 cell line that harbors the EGFR L858R T790M mutations (ATCC, CRL-5908) using AlphaLISA sureFire ultra p-EGFR (Tyr1068) assay kit (PerkinElmer, ALSU-PEGFR-A50K). The NCI-H1975 cells were seeded at 12.5K/well in 22 μL into 384 well opti plate (PerkinElmer, 6007299) and adhering overnight at 37 C/5% CO2. On the next day, the test compounds and DMSO control were added into H1975 cell plate followed by incubation at 37 C/5% CO2 for 4-5 hours. The cells were then spin down in the 384-well plate and lysed with 10 μL of 1×AlphaLISA lysis buffer followed by shaking at 600 rpm for 10 minutes at room temperature. After that, 5 μL of an acceptor bead mix was added to each well followed by incubation at room temperature for 1.5-2 h in dark. Then 5 μL of a donor bead mix was added to each well followed by overnight incubation at room temperature in dark. On the next day, the plate was read at a compatible plate reader to obtain pEGFR signal. Percent of pEGFR inhibition was plotted against log concentration of compounds to generate IC50 values.

[2] = inhibition of phosphorylation of mutant EGFR in NCI-H1975 cells
[3] = Homo sapiens, NCI-H1975, inhibition of phosphorylation of mutant EGFR in NCI-H1975 cells

T1 sequence (P00533 25-1210 T790M/C797S/L858R): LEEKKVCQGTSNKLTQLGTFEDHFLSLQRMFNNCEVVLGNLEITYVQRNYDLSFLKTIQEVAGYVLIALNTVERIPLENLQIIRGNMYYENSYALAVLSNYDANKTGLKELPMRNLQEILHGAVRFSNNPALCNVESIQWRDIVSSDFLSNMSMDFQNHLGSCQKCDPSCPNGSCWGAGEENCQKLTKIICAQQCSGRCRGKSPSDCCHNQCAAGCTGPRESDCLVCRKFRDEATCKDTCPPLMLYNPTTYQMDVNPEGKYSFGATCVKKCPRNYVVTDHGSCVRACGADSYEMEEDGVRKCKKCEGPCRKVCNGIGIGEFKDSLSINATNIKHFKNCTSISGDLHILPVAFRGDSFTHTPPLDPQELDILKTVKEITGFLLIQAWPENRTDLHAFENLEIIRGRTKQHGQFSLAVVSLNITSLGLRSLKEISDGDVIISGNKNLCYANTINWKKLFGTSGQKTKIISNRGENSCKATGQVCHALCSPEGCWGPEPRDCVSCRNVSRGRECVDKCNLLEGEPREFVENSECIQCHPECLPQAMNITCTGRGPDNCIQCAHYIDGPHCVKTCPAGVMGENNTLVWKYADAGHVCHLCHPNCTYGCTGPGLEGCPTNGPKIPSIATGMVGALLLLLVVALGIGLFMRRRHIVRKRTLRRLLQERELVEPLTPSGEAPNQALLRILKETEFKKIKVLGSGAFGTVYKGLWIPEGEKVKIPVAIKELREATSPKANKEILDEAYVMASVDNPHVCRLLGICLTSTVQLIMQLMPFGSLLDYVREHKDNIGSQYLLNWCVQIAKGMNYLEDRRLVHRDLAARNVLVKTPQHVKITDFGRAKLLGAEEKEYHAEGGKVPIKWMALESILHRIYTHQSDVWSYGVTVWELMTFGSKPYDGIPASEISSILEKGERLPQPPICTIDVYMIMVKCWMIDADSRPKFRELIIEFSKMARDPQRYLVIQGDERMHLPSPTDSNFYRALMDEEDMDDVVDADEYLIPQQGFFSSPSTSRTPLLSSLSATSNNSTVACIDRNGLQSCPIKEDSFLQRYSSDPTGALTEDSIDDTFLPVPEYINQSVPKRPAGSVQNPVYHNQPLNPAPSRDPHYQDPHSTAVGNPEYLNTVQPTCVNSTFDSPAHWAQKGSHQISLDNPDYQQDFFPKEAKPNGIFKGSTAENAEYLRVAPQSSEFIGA

IC50 (EGFR (L858R T790M C797S)) [nM]	IC50 [1, 2] [nM]	IC50 [1, 3] [nM]	Structure (SMILES)
≤ 15	≤ 10	–	CC(C)c1ccc(N2C[C@H](CS(C)(=O)=O)[C@H]2C)c2cnc(Nc3ccnc(N4CC[C@@H](OCCN(C)C)C(F)(F)C4)n3)cc12 (single isomer, unassigned) [Compound 305, N-{2-[(4S)-4-[2-(dimethylamino)ethoxy]-3,3-difluoropiperidin-1-yl]pyrimidin-4-yl}-8-[(2R,3S)-3-(methanesulfonylmethyl)-2-methylazetidin-1-yl]-5-(propan-2-yl)isoquinolin-3-amine or N-{2-[(4R)-4-[2-(dimethylamino)ethoxy]-3,3-difluoropiperidin-1-yl]pyrimidin-4-yl}-8-[(2R,3S)-3-(methanesulfonylmethyl)-2-methylazetidin-1-yl]-5-(propan-2-yl)isoquinolin-3-amine]
≤ 15	–	≤ 10	CC(C)c1ccc(N2C[C@H](CS(C)(=O)=O)[C@H]2C)c2cnc(Nc3ccnc(N4CC[C@H](OCCN(C)C)[C@H](F)C4)n3)cc12 [Compound 253, N-{2-[(3R,4S)-4-[2-(dimethylamino)ethoxy]-3-fluoropiperidin-1-yl]pyrimidin-4-yl}-8-[(2R,3S)-3-(methanesulfonylmethyl)-2-methylazetidin-1-yl]-5-(propan-2-yl)isoquinolin-3-amine]
30.1 to 100	–	20.1 to 30	CC(C)c1cnc(N2CC(CS(=O)(=O)C(F)(F)F)C2)c2cnc(Nc3ccnc(N4CC[C@@H](O)[C@@](C)(F)C4)n3)cc12 (single isomer, unassigned) [Compound 237]
20.1 to 30	–	30.1 to 50	COCCO[C@@H]1CCN(c2nccc(Nc3cc4c(C(C)C)ccc(N5CC(CS(C)(=O)=O)C5)c4cn3)n2)C[C@H]1O (racemic) [Compound 227, (3S,4S)-1-[4-[[5-isopropyl-8-[3-(methylsulfonylmethyl)azetidin-1-yl]-3-isoquinolyl]amino]pyrimidin-2-yl]-4-(2-methoxyethoxy)piperidin-3-ol or (3R,4R)-1-[4-[[5-isopropyl-8-[3-(methylsulfonylmethyl)azetidin-1-yl]-3-isoquinolyl]amino]pyrimidin-2-yl]-4-(2-methoxyethoxy)piperidin-3-ol]
≤ 15	–	≤ 10	CCS(=O)(=O)CC1CN(c2ccc(C(C)C)c3cc(Nc4ccnc(N5CC[C@@](C)(O)[C@@H](F)C5)n4)ncc23)C1 [Compound 276, (3S,4R)-1-{4-[(8-{3-[(ethanesulfonyl)methyl]azetidin-1-yl}-5-(propan-2-yl)isoquinolin-3-yl)amino]pyrimidin-2-yl}-3-fluoro-4-methylpiperidin-4-ol]
≤ 15	≤ 10	–	CC(C)c1ccc(N2C[C@H](CS(C)(=O)=O)[C@H]2C)c2cnc(Nc3ccnc(N4CC[C@@H](OC[C@H](C)O)[C@@H](F)C4)n3)cc12 (single isomer, unassigned) [Compound 248, (2R)-1-{[(3S,4R)-3-fluoro-1-[4-({8-[(2R,3S)-3-(methanesulfonylmethyl)-2-methylazetidin-1-yl]-5-(propan-2-yl)isoquinolin-3-yl}amino)pyrimidin-2-yl]piperidin-4-yl]oxy}propan-2-ol or (2S)-1-{[(3S,4R)-3-fluoro-1-[4-({8-[(2R,3S)-3-(methanesulfonylmethyl)-2-methylazetidin-1-yl]-5-(propan-2-yl)isoquinolin-3-yl}amino)pyrimidin-2-yl]piperidin-4-yl]oxy}propan-2-ol]
≤ 15	–	≤ 10	CO[C@@H]1[C@H](O)CN(c2nccc(Nc3cc4c(C(C)C)ccc(N5CC(CS(C)(=O)=O)C5)c4cn3)n2)CC1(F)F (single isomer, unassigned) [Compound 218, rac-5,5-difluoro-1-[4-[[5-isopropyl-8-[3-(methylsulfonylmethyl)azetidin-1-yl]-3-isoquinolyl]amino]pyrimidin-2-yl]-4-methoxy-piperidin-3-ol]

Continued, molecule first:

Structure (SMILES)	IC50 (EGFR (L858R T790M C797S)) [nM]	IC50 [1, 2] [nM]	IC50 [1, 3] [nM]
CC(C)c1ccc(N2CC(CS(C)(=O)=O)C2)c2cnc(Nc3ccnc(N4CC(C)(C)[C@H](O)C(F)(F)C4)n3)cc12 (single isomer, unassigned) [Compound 213, (4S)-3,3-difluoro-1-[4-({8-[3-(methanesulfonylmethyl)azetidin-1-yl]-5-(propan-2-yl)isoquinolin-3-yl}amino)pyrimidin-2-yl]-5,5-dimethylpiperidin-4-ol or (4R)-3,3-difluoro-1-[4-({8-[3-(methanesulfonylmethyl)azetidin-1-yl]-5-(propan-2-yl)isoquinolin-3-yl}amino)pyrimidin-2-yl]-5,5-dimethylpiperidin-4-ol]	≤ 15	–	≤ 10
CC(C)c1ccc(N2CC(CS(C)(=O)=O)C2)c2cnc(Nc3ccnc(N4CC[C@@](C)(O)[C@@H](F)C4)n3)cc12 (single isomer, unassigned) [Compound 56]	≤ 15	–	10.1 to 20
CO[C@@H]1CCN(c2nccc(Nc3cc4c(C(C)C)ccc(N5C[C@H](CS(C)(=O)=O)[C@H]5C)c4cn3)n2)C[C@H]1CO (single isomer, unassigned) [Compound 174, [(3S,4R)-1-[4-({8-[(2R,3S)-3-(methanesulfonylmethyl)-2-methylazetidin-1-yl]-5-(propan-2-yl)isoquinolin-3-yl}amino)pyrimidin-2-yl]-4-methoxypiperidin-3-yl]methanol or [(3R,4S)-1-[4-({8-[(2R,3S)-3-(methanesulfonylmethyl)-2-methylazetidin-1-yl]-5-(propan-2-yl)isoquinolin-3-yl}amino)pyrimidin-2-yl]-4-methoxypiperidin-3-yl]methanol]	≤ 15	–	10.1 to 20
CO[C@H]1CCN(c2nccc(Nc3cc4c(C(C)C)ccc(N5C[C@H](CS(C)(=O)=O)[C@H]5C)c4cn3)n2)C[C@@H]1O (single isomer, unassigned) [Compound 92, (3S,4S)-1-(4-(5-isopropyl-8-(2R,3S)-2-methyl-3-(methylsulfonylmethyl)azetidin-1-yl)isoquinolin-3-ylamino)pyrimidin-2-yl)-4-methoxypiperidin-3-ol or (3R,4R)-1-(4-(5-isopropyl-8-((2R,3S)-2-methyl-3-(methylsulfonylmethyl)azetidin-1-yl)isoquinolin-3-ylamino)pyrimidin-2-yl)-4-methoxypiperidin-3-ol]	≤ 15	–	≤ 10
CC(C)c1ccc(N2C[C@H](CS(C)(=O)=O)[C@H]2C)c2cnc(Nc3ccnc(N4CC[C@@](C)(O)[C@H](O)C4)n3)cc12 (single isomer, unassigned) [Compound 102, (3R,4R)-1-[4-({8-[(2R,3S)-3-(methanesulfonylmethyl)-2-methylazetidin-1-yl]-5-(propan-2-yl)isoquinolin-3-yl}amino)pyrimidin-2-yl]-4-methylpiperidine-3,4-diol or (3S,4S)-1-[4-({8-[(2R,3S)-3-(methanesulfonylmethyl)-2-methylazetidin-1-yl]-5-(propan-2-yl)isoquinolin-3-yl}amino)pyrimidin-2-yl]-4-methylpiperidine-3,4-diol]	≤ 15	–	20.1 to 30
CO[C@@H]1CCN(c2nccc(Nc3cc4c(F)ccc(N5C[C@H](CS(C)(=O)=O)[C@H]5C)c4cn3)n2)C[C@]1(C)F (single isomer, unassigned) [Compound 84]	≤ 15	–	10.1 to 20
